Data set [1] relates to HepG2. As to the kind of experiment: Induction of apoptosis in human HepG2 cells assessed as increase in PARP cleavage at 25 uM after 24 hrs by Western blotting. In kind it is functional, cell-based. A general note: A western blot detects proteins with antibodies after separation by electrophoresis.
Data set [2] concerns HepG2. As to the kind of experiment: Induction of apoptosis in human doxorubicin-resistant HepG2 cells expressing p-gp assessed as increase in PARP cleavage at 25 uM after 24 hrs by Western blotting. Type of data set: functional, cell-based.
Data set [3] concerns HepG2. As to the kind of experiment: Induction of apoptosis in human HepG2 cells assessed as activation of caspase-3/8/9 at 25 uM after 24 hrs by Western blotting. In kind it is functional, cell-based.
Data set [4] has as its system HepG2. As to the kind of experiment: Induction of apoptosis in human doxorubicin-resistant HepG2 cells expressing p-gp assessed as activation of caspase-3/8/9 at 25 uM after 24 hrs by Western blotting. Type of data set: functional, cell-based.
The subject of data set [5] is HepG2. As to the kind of experiment: Increase of SAPK/JNK phosphorylation in human HepG2 cells at 25 uM by Western blot analysis. In kind it is cell-based.
In data set [6] the test system is HepG2. As to the kind of experiment: Increase of SAPK/JNK phosphorylation in human doxorubicin-resistant HepG2 cells expressing p-gp at 25 uM by Western blot analysis. In kind it is cell-based.
The target of data set [7] is T1, MAP kinase p38 (Homo sapiens) (UniProt O15264+Q15759+Q16539+P53778). In words: Inhibition of p38 MAPK phosphorylation in human HepG2 cells at 25 uM by Western blot analysis. Type of data set: cell-based.
Data set [8] concerns the target T1, MAP kinase p38 (Homo sapiens). As to the kind of experiment: Inhibition of p38 MAPK phosphorylation in human doxorubicin-resistant HepG2 cells expressing p-gp at 25 uM by Western blot analysis. In kind it is cell-based.
Data set [9] has as its target T2, Mitogen-activated protein kinase; ERK1/ERK2 (Homo sapiens) (UniProt P27361+P28482). In words: Inhibition of ERK1/2 phosphorylation in human HepG2 cells at 25 uM by Western blot analysis. In kind it is cell-based.
The target of data set [10] is T2, Mitogen-activated protein kinase; ERK1/ERK2 (Homo sapiens). In words: Inhibition of ERK1/2 phosphorylation in human doxorubicin-resistant HepG2 cells expressing p-gp at 25 uM by Western blot analysis. In kind it is cell-based.
For data set [11], the system named is HepG2. In words: Effect on nonphosphorylated ERK1/ERK2 level in human HepG2 cells at 25 uM by Western blot analysis. In kind it is ADME, cell-based. Conditions: hepg2, 25 µM.
The subject of data set [12] is HepG2. As to the kind of experiment: Effect on nonphosphorylated ERK1/ERK2 level in human doxorubicin-resistant HepG2 cells expressing p-gp at 25 uM by Western blot analysis. Type of data set: ADME, cell-based. Particulars: hepg2, 25 µM.
In data set [13] the test system is HepG2. As to the kind of experiment: Effect on nonphosphorylated p38 MAPK level in human HepG2 cells at 25 uM by Western blot analysis. Type of data set: ADME, cell-based. Conditions: hepg2, 25 µM.
Data set [14] concerns HepG2. As to the kind of experiment: Effect on nonphosphorylated p38 MAPK level in human doxorubicin-resistant HepG2 cells expressing p-gp at 25 uM by Western blot analysis. In kind it is ADME, cell-based. Conditions: hepg2, 25 µM.
In data set [15] the test system is HepG2. In words: Effect on nonphosphorylated SAPK/JNK level in human HepG2 cells at 25 uM by Western blot analysis. In kind it is ADME, cell-based. Particulars: hepg2, 25 µM.
Data set [16] concerns HepG2. As to the kind of experiment: Effect on nonphosphorylated SAPK/JNK level in human doxorubicin-resistant HepG2 cells expressing p-gp at 25 uM by Western blot analysis. In kind it is ADME, cell-based. Conditions: hepg2, 25 µM.

We go through one molecule from ChEMBL document CHEMBL3608289, “Miltirone Is a Dual Inhibitor of P-Glycoprotein and Cell Growth in Doxorubicin-Resistant HepG2 Cells” (J Nat Prod, 2015).

Calls of active or inactive are those of the source. The rule behind the calls is not given here.

T2 sequence (P27361 whole entry, looked up): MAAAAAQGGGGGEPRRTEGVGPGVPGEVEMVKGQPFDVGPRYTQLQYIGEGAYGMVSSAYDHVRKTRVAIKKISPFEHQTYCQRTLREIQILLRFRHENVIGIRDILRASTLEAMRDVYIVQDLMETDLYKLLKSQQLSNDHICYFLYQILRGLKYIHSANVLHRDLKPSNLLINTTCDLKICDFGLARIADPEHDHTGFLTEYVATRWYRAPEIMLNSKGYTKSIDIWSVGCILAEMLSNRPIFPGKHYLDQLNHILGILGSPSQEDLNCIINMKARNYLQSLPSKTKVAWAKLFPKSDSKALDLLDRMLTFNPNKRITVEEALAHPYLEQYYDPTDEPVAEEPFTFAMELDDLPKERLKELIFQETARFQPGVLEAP
T2 sequence (P28482 whole entry, looked up): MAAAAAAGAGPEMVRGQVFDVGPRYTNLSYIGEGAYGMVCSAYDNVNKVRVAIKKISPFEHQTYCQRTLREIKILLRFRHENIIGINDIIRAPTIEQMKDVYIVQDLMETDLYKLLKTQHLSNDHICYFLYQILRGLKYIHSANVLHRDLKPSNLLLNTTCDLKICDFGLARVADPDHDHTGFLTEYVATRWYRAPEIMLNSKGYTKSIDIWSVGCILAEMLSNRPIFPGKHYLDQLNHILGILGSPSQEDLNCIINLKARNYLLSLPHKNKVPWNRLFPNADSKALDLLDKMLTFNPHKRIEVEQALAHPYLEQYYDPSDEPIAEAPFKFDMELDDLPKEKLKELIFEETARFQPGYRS

`Cc1cccc2c3c(ccc12)C1=C(C(=O)C3=O)[C@@H](C)CO1` [DIHYDROTANSHINONE I]: the result in the data set on HepG2 [1], with HepG2 [2], in the data set on HepG2 [3], in the data set with HepG2 [4] and with HepG2 [5] was Active. Further, the outcome with HepG2 [6] was inactive. In addition, the inhibition entry in data set [7], in data set [8] and in data set [10] was “Active” throughout. Besides, the inhibition result in data set [9] was “inactive”. In addition, the Activity entry in the data set on HepG2 [11], with HepG2 [12], with HepG2 [13], in the data set with HepG2 [14], in the data set with HepG2 [15] and in the data set with HepG2 [16] was “Non-toxic” throughout.
